Reference: patent US8697629B2, “Modulation of intracellular signaling” (Angstrom Pharmaceuticals, Inc., priority 2010, dated 2014)

Tests used:
[1] = molecular target: T1, CD44 (Homo sapiens, UniProt P16070); experiment: Dimerization of CD44 in SKOV3 cells, anti-CD44 B-F24 immunoblot; type: cell-based; conditions: SKOV3 cultured 20 hr with 1 or 10 μM Å6, non-reducing
T1 construct: endogenous in cells; host or cells: SKOV3 cells
Experimental: In FIG. 13 SKOV3 cells were cultured for 20 hr with no additions, 1 or 10 μM Å6 or 100 ng/ml PMA. Triton X-100 lysates were generated and further solubilized in SDS-PAGE sample buffer under non-reducing conditions. Aliquots representing 7.5 μg of cellular protein were subjected to SDS-PAGE followed by immunoblot analysis with the anti-CD44 murine monoclonal B-F24. The presence of stained higher molecular weight bands can be indicative of CD44 dimers and/or oligomers.

[2] = test system: ERK 1/2; experiment: ERK 1/2 phosphorylation (T202/Y204) in SKOV3 cells, immunoblot; type: cell-based
Experimental: Cells were detached from their culture vessels by brief trypsinization, suspended in complete media and centrifuged at 250×g for 10 min at room temperature. The cell pellets were suspended in Dulbeco's phosphate buffered saline (DPBS) and re-centrifuged for a total of three washes. The cells were then re-suspended at 3.33E5/ml in 24 ml of either RPMI containing 0.5% BSA (Sigma Chem. Co. #A0336) (RPMI/BSA) or the conditioned media of growing NIH3T3 fibroblasts (10% FBS in DMEM) supplemented with 10 ng/ml vascular endothelial growth factor (VEGF) (CMN). The cells were then treated with or without 100 ug/ml soluble hyaluronic acid (HA; human umbilical, Calbiochem #385902) for 30 min at 37° C. under 5% CO2. Aliquots representing 2E6 cells were then plated into 10 cm culture dishes and A6 added to yield final concentrations of 0, 10, 100 and 1000 nM. The cells were cultured overnight (18 hr) at 37° C. under 5% CO2.
After 18 hr of treatment, the media were aspirated from the 10 cm dishes and saved. The plates were washed 3 times with 4 ml of ice-cold DPBS which were pooled with the reserved non-adherent cells. The non-adherent cells were centrifuged at 250×g for 10 min at 4° C., washed twice with cold DPBS, drained and lysed in 50 ul of cold RIPA buffer (ThermoScientific #89901) containing cocktails of broad spectrum phosphatase inhibitors (Calbiochem #524625; used at 2× final concentration) and protease inhibitors (Sigma #P8340) (RIPA/inh.). The 10 cm dishes were drained of remaining wash and the adherent cells lysed by scraping in 200 μL of cold RIPA/inh. For each test condition, the lysates of the non-adherent and adherent populations were combined, vortexed and then centrifuged at 14,000 rpm at 4° C. for 20 min. Aliquots of the cleared lysates were frozen at −80° C. immediately. A small aliquot was reserved for total protein analysis using a BCA Protein Assay Kit (Calbiochem #71285-3).
Samples representing 20 μg of total protein of each lysate were solubilized in the presence of 50 mM Tris pH 6.8, 10% glycerol, 2% SDS and 100 mM DTT for 5 min at 95° C. and then loaded onto 10-20% acrylamide gels (BioRad #345-0044, Tris-HCl, 1 mm, 26 well, 15 μL/well). Electrophoresis was performed using Laemli electrophoresis buffer (0.1% SDS, 25 mM Tris, 192 mM glycine) at 200 V, constant voltage, for one hour. Upon completion of electrophoresis, the proteins were transferred to Immun-Blot PVDF membranes (BioRad #162-0238) in ice-cold 20% methanol in 25 mM Tris, 192 mM glycine for 2 hr at 0.5 Amps, constant current/blotting apparatus. The membranes were then cut vertically between molecular weight markers and in half at the 64 kDa marker to generate pieces for screening of higher molecular weight proteins (e.g., FAK) and lower molecular weight proteins (e.g., MEK and GAPDH). The blots were then blocked for a minimum of 4 hrs at room temperature in 3% bovine serum albumin (Sigma A0336) in 50 mM Tris, pH 7.4, 145 mM NaCl, 0.05% Tween-20 (TTBS) containing 0.05% sodium azide.
Upon completion of the primary antibody incubation, the blots were washed three times for 10 min in TTBS and then incubated with 1/25,000 dilutions of peroxidase-conjugated donkey anti-mouse IgG (Jackson ImmunoResearch #715-035-150) or peroxidase-conjugated donkey anti-rabbit IgG (Jackson ImmunoResearch #711-035-152) in TTBS containing 3% BSA for one hour at room temperature. […]

T1 sequence (P16070 21-742): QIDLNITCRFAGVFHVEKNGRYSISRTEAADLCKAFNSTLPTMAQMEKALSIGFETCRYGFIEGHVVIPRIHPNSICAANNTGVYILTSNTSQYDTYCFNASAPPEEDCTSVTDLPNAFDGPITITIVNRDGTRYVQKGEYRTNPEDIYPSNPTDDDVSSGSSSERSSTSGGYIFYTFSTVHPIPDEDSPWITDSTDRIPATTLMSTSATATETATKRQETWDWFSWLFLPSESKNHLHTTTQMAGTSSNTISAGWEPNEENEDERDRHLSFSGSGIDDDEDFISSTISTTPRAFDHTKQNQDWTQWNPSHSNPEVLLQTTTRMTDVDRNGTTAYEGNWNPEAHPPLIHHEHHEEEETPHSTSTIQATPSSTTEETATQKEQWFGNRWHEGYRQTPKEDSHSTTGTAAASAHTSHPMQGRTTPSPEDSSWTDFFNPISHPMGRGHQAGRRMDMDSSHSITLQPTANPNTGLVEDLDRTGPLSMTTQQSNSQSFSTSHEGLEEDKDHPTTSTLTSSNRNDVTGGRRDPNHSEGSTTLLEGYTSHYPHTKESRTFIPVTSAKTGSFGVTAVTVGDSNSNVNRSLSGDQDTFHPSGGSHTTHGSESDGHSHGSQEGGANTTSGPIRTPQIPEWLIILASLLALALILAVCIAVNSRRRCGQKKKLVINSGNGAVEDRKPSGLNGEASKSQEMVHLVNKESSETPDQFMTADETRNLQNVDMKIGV

CD44 higher molecular weight bands (dimers and/or oligomers) [1]: higher molecular weight bands are formed
Substance: acetyl-Lys-Pro-Ser-Ser-Pro-Pro-Glu-Glu-NH2 (Ac-KPSSPPEE-NH2) [Å6]
pERK/Erk ([2]; CM/V): appears to have increased
pERK/Erk ([2]; CM/V with HA present): decreased
pERK/Erk ([2]; basal media (RPMI/BSA)): increased pERK/Erk in a dose dependent manner
pErk/Erk response to HA ([2]; basal media with HA): decreased this response to HA
